Experimental data as given in US20040204577A1, “Novel peptide-forming enzyme gene” (Ajinomoto Co., Inc., priority 2003, published 2004).
Where a SMILES comes first, the peptide text is derived from it. [ ]: non-standard residue; d: D form. The star is where a group is joined. 2Nal = N[C@@H](Cc1ccc2ccccc2c1)C(=O)O; Tle = CC(C)(C)[C@H](N)C(=O)O; tBu = CC(C)(C)*

Tests used:
[1] = test system: peptide-forming enzyme (Mono S fraction enzyme); test: Enzyme inhibitors: effects on the production of L-alanyl-L-glutamine; format: biochemical, Empedobacter brevis; details: for Inhibition of the enzyme (in words): serine enzyme inhibitors at 10 mM
[2] = Comparison of ability to catalyze peptide formation with known enzymes; format: biochemical; details: for L-Ala-L-Gln production rate: 100 mM L-alanine methyl ester hydrochloride, 200 mM L-glutamine, pH 9.0, 25° C., enzyme added 0.02-3.60 protein mg/ml as in Table 14; for Ratio of L-Ala-L-Gln production rate per enzyme unit weight: enzyme of present invention = 100.0
Description: The enzyme homogeneously purified in Example 3 was used as a source of the present enzyme of the present invention.

[3] = test system: peptide-forming enzyme (Mono S fraction enzyme); test: Enzyme substrate specificity (1)-(10), (13), (14): peptide production; format: biochemical, Empedobacter brevis; parameters: key: +: those peptides for which production was confirmed but which were unable to be quantified due to the absence of a standard; a trace amount; details: 0.1 unit enzyme, 25° C.
Method: Ester specificity was examined in the case of using L-amino acid ester for the carboxy component. 2 μl of the same enzyme fraction as used in Example 5 was added to 100 μl of 100 mM borate buffer (pH 9.0) containing the carboxy components indicated in Table 4 at 100 mM, 200 mM L-glutamine and 10 mM EDTA, and allowed to react at 25° C. for 2 hours. HCl represents hydrochloride in Table 4.
Peptide production was examined in the case of using L-alanine methyl ester for the carboxy component and using various L-amino acids for the amine component.
Peptide production was examined in the case of using various types of L-amino acid methyl esters for the carboxy component and using L-glutamine for the amine component. 2 μl of the same enzyme fraction as used in Example 5 was added to 100 μl of 100 mM borate buffer (pH 9.0) containing the L-amino acid methyl ester hydrochloride salts (AA-OMe.HCl) shown in Table 6 at 100 mM, 150 mM L-glutamine and 10 mM EDTA, and allowed to react at 25° C. for 3 hours. […] Furthermore, Tween-80 was added to the reaction system to a final concentration of 0.1% in the case of using L-Trp-OMe and L-Tyr-OMe.
Peptide production was examined in the case of using various L-amino acid methyl esters for the carboxy component and various L-amino acids for the amine component. 2 μl of the same enzyme fraction as used in Example 5 was added to 100 μl of 100 mM borate buffer (pH 9.0) containing the L-amino acid methyl ester hydrochloride salts (AA-OMe.HCl) shown in Table 7 at 100 mM, the L-amino acids shown in Table 7 at 150 mM and 10 mM EDTA, and allowed to react at 25° C. for 3 hours. The “tr” indicates a trace amount. Furthermore, Tween-80 was added to the reaction system to a final concentration of 0.1% in the case of using L-Trp-OMe.
Peptide production was examined in the case of using the L or D forms of various amino acid methyl esters for the carboxy component, and the L or D forms of various amino acids for the amine component. 2 μl of the same enzyme fraction as used in Example 5 was added to 100 μl of 100 mM borate buffer (pH 9.0) containing the various amino acid methyl ester hydrochloride salts (AA-OMe HCl) shown in Table 8 at 100 mM, the various amino acids shown in Table 8 at 150 mM and 10 mM EDTA, and allowed to react at 25° C. for 3 hours. The “tr” indicates a trace amount.
Peptide production was examined using various L-amino acid amides for the carboxy component, and various L-amino acids for the amine component. 2 μl of the same enzyme fraction as that used in Example 5 was added to 100 μl of 100 mM borate buffer (pH 9.0) containing the L-amino acid amide hydrochloride salt (M-NH2.HCl) shown in Table 9 at 100 mM, the L-amino acids shown in Table 9 at 150 mM and 10 mM EDTA, and allowed to react at 25° C. for 3 hours.
Peptide production was examined in the case of using various L-alanine methyl esters for the carboxy component and C-protected L-amino acids for the amine component. 2 μl of the same enzyme fraction as used in Example 5 was added to 100 μl of 100 mM borate buffer (pH 9.0) containing the L-alanine methyl ester hydrochloride hydrochloride salt (Ala-OMe.HCl) shown in Table 10 at 100 mM, the L-amino acid amide hydrochloride salts shown in Table 10 at 150 mM and 10 mM EDTA, and allowed to react at 25° C. for 3 hours.
Peptide production was examined in the case of using various amino acid methyl esters for the carboxy component and methylamine for the amine component. 2 μl of the same enzyme fraction as used in Example 5 was added to 100 μl of 100 mM borate buffer (pH 9.0) containing the amino acid methyl ester hydrochloride salt (M-OMe.HCl) shown in Table 11 at 100 mM, the methylamine shown in Table 11 at 150 mM and 10 mM EDTA, and allowed to react at 25° C. for 3 hours.
Peptide production was examined in the case of using […] for the carboxy component or β-amino acid for the amine component.

[4] = test system: peptide-forming enzyme (Mono S fraction enzyme); test: Production of L-alanyl-L-glutamine from L-alanine methyl ester and L-glutamine with enzyme fraction; format: biochemical, Empedobacter brevis; details: 100 mM L-alanine methyl ester hydrochloride, 200 mM L-glutamine, 10 mM EDTA, pH 9.0, 18° C.; FIG. 3
Method: On the other hand, there was hardly any production of L-Ala-L-Gln observed in an enzyme-non-added lot, and the […] was only about 0.07 mM after reacting for 120 minutes.

[5] = test system: peptide-forming enzyme (Mono S fraction enzyme); test: Enzyme substrate specificity (1)-(10), (13), (14): peptide production; format: biochemical, Empedobacter brevis; details: pH 9.0, 25° C., 3 hours
Method in brief: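 Mono S enzyme fraction in 100 mM borate buffer (pH 9.0) with 10 mM EDTA and 100 mM carboxy component (amino acid methyl esters or amides); amine components (L-glutamine, amino acids, amino acid amides or methylamine) at 150 mM, or 200 mM L-glutamine with varied esters. Reactions ran at 25° C for 2–3 hours; 0.1% Tween-80 added for Trp/Tyr-OMe.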

[6] = test system: enzyme derived from Sphingobacterium sp. strain FERM BP-8124 (SP-Sepharose HP fraction enzyme); test: Enzyme substrate specificity (11), (12): peptide production; format: biochemical; details: carboxy component 100 mM, amine component 150 mM, 0.33 units enzyme, pH 9.0, 25° C., 1.5 hours
Method in brief: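 Peptide and oligopeptide formation catalysed by SP-Sepharose HP-fraction enzyme from Sphingobacterium sp. FERM BP-8124; carboxy components used as hydrochloride salts, 0.1% Tween-80 final added with L-Tyr-OMe. Products quantified; "+" denotes detected but unquantified (no standard), "tr" trace.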

[7] = test system: microbial cells of Empedobacter brevis strain FERM BP-8113; test: Production of peptide using microbial cells; format: cell-based; details: 1 mL cell suspension (100 g/L) + 1 mL buffer with 200 mM carboxy component (hydrochloride) and 400 mM amino acid; borate buffer pH 9.0, 10 mM EDTA; 18° C., 2 hours
Method: A 50 mL medium (pH 6.2) containing 5 grams (g) of glucose, 5 g of ammonium sulfate, 1 g of monopotassium phosphate, 3 g of dipotassium phosphate, 0.5 g of magnesium sulfate, 10 g of yeast extract and 10 g of peptone in 1 liter (L) was transferred to a 500 mL Sakaguchi flask and sterilized at 115° C. for 15 minutes. This medium was then inoculated with one loopful cells of Empedobacter brevis strain FERM BP-8113 (Depositary institution: the independent administrative corporation, National Institute of Advanced Industrial Science and Technology, International Patent Organism Depositary, Address of depositary institution: Chuo Dai-6, 1-1 Higashi 1-Chome, Tsukuba-shi, Ibaraki-ken, Japan, International deposit transfer date: Jul. 8, 2002) that had been cultured at 30° C. for 16 hours in the same medium, followed by shake culturing at 30° C. for 16 hours and 120 strokes/min.

[8] = inhibitor at 10 mM, borate buffer pH 9.0, 25° C., 5 minutes, 100 = absence of enzyme inhibitor
[9] = carboxy component 100 mM, amine component 150 mM, reaction time 3 hr

Molecule: CCN1C(=O)C=CC1=O [N-Ethyl maleimide]
- Relative activity of L-Ala-L-Gln production [1, 8]: 110%

Molecule: O=C(O)CN(CCN(CC(=O)O)CC(=O)O)CC(=O)O [EDTA, ethylene diamine tetraacetic acid]
- Relative activity of L-Ala-L-Gln production [1, 8]: 96%

Molecule: Chymopapain: thiol endopeptidase described in EP 359399B1, purified enzyme manufactured by Sigma
- L-Ala-L-Gln production rate [2]: 0.0100 mM/min
- Ratio of L-Ala-L-Gln production rate per enzyme unit weight [2]: 0.0013

Molecule: Bromelain
- L-Ala-L-Gln production rate [2]: 0.0062 mM/min
- Ratio of L-Ala-L-Gln production rate per enzyme unit weight [2]: 0.0010

Molecule: CN[C@@H](C)C(=O)N[C@@H](Cc1ccccc1)C(=O)O [H-N-Me-Ala-Phe-OH]
- Produced peptide [3, 9]: tr

Molecule: O=C(O)CI [Monoiodoacetate]
- Relative activity of L-Ala-L-Gln production ([1]; pH 9): 101%

Molecule: NC(=O)CC[C@H](NC(=O)[C@@H](N)Cc1ccc2ccccc2c1)C(=O)O [H-2-Nal-H-Gln-OH] (H-[2Nal]-Gln-OH)
- Produced peptide ([3]; carboxy component 40 mM, amine component 40 mM, reaction time 3 hr): tr

Molecule: NC(=O)CC[C@H](NC(=O)[C@@H](N)Cc1ccc(F)cc1)C(=O)O [H-p-F-Phe-H-Gln-OH]
- Produced peptide [3, 9]: tr

Molecule: c1cnc2c(c1)ccc1cccnc12 [o-Phenanthroline, o-phenanthroline]
- Relative activity of L-Ala-L-Gln production [1, 8]: 96%

Molecule: O=S(=O)(F)Cc1ccccc1 [Phenylmethylsulfonyl fluoride, phenylmethylsulfonyl fluoride]
- Relative activity of L-Ala-L-Gln production [1, 8]: 115%
- Inhibition of the enzyme (in words) [1]: not inhibited

Molecule: L-Ala-L-Ala-L-Gln
- Peptide formed, enzyme-added lot [4]: 1.3 mM
- Produced peptide ([5]; L-amino acid ester 100 mM, peptide (amine component) 150 mM): 15.2 mM

Molecule: Ficin
- L-Ala-L-Gln production rate [2]: 0.0096 mM/min
- Ratio of L-Ala-L-Gln production rate per enzyme unit weight [2]: 0.0017

Molecule: CC(C)(C)[C@H](N)C(=O)N[C@@H](CCC(N)=O)C(=O)O [H-t-Leu-H-Gln-OH] (H-[Tle]-Gln-OH)
- Produced peptide [3, 9]: tr

Molecule: N=C(N)Nc1ccc(C(=O)Oc2ccc([N+](=O)[O-])cc2)cc1 [p-Nitrophenyl-p′-guanidino benzoate, p-nitrophenyl-p′-guanidinobenzoate]
- Relative activity of L-Ala-L-Gln production [1, 8]: 0.1%
- Inhibition of the enzyme (in words) [1]: inhibited

Molecule: CC(C)(C)OC[C@H](N)C(=O)N[C@@H](CCC(N)=O)C(=O)O [H-Ser(tBu)-Gln-OH] (H-Ser(tBu)-Gln-OH)
- Produced peptide ([3]; carboxy component 100 mM, amine component 150 mM, reaction time 2 hr): tr

Molecule: CSCC[C@H](NC(=O)[C@@H](N)C(C)C)C(=O)O [L-Val-L-Met] (H-Val-Met-OH)
- Produced peptide (Table 15-3) [6]: 6.8 mM
- Formed peptide [7]: 10.5 mM
- Formed peptide ([5]; L-amino acid methyl ester hydrochloride 100 mM, L-amino acid 150 mM): 10.3 mM

B1: Papain: thiol endopeptidase described in EP 359399B1, purified enzyme manufactured by Sigma (protein, UniProt P00784 134-345, looked up)
Papain: IPEYVDWRQKGAVTPVKNQGSCGSCWAFSAVVTIEGIIKIRTGNLNEYSEQELLDCDRRSYGCNGGYPWSALQLVAQYGIHYRNTYPYEGVQRYCRSREKGPYAAKTDGVRQVQPYNEGALLYSIANQPVSVVLEAAGKDFQLYRGGIFVGPCGNKVDHAVAAVGYGPNYILIKNSWGTGWGENGYIRIKRGTGNSYGVCGLYTSSFYPVKN
- L-Ala-L-Gln production rate [2]: 0.0106 mM/min
- Ratio of L-Ala-L-Gln production rate per enzyme unit weight [2]: 0.0021

B2: Carboxypeptidase Y: known enzyme described in EP 278787A1, purified enzyme manufactured by Sigma (protein, UniProt P00729 112-532, looked up)
Carboxypeptidase Y: KIKDPKILGIDPNVTQYTGYLDVEDEDKHFFFWTFESRNDPAKDPVILWLNGGPGCSSLTGLFFELGPSSIGPDLKPIGNPYSWNSNATVIFLDQPVNVGFSYSGSSGVSNTVAAGKDVYNFLELFFDQFPEYVNKGQDFHIAGESYAGHYIPVFASEILSHKDRNFNLTSVLIGNGLTDPLTQYNYYEPMACGEGGEPSVLPSEECSAMEDSLERCLGLIESCYDSQSVWSCVPATIYCNNAQLAPYQRTGRNVYDIRKDCEGGNLCYPTLQDIDDYLNQDYVKEAVGAEVDHYESCNFDINRNFLFAGDWMKPYHTAVTDLLNQDLPILVYAGDKDFICNWLGNKAWTDVLPWKYDEEFASQKVRNWTASITDEVAGEVKSYKHFTYLRVFNGGHMVPFDVPENALSMVNEWIHGGFSL
- L-Ala-L-Gln production rate [2]: 0.0257 mM/min
- Ratio of L-Ala-L-Gln production rate per enzyme unit weight [2]: 0.0191
